Measured values: the supplement of paper PMC10307832

What was measured:
Assay in all cases: relative viability (nuclei count vs DMSO), 5 days (fraction); higher = more cells survive
[1] = compound: C1=CC(=CC=C1C2=CC(=C(S2)NC(=O)N)C(=O)N)F [TPCA-1] + O=C(c1cc(Cc2n[nH]c(=O)c3ccccc23)ccc1F)N1CCN(C(=O)C2CC2)CC1 [Olaparib] (partner 8 µM)
How it was run: (§1)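 A single step with final 0.05% Triton X-100, 1% formaldehyde and 1 ug/ml Hoechst fixed the cells and stained nuclei 5 days after treatment. Lung cancer cell lines in 1536-well plates had been treated by pin tool the day after seeding with one drug alone or a fixed anchor-drug dose plus five library-drug doses (not always all listed) in √10 steps, and nuclei were counted on 4× images. Relative viability is the ratio of nuclei in treated wells to nuclei in vehicle wells, taken as the median of duplicate plates.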

[2] = compound: C[C@]12O[C@H](C[C@]1(O)CO)n1c3ccccc3c3c4c(c5c6ccccc6n2c5c31)CNC4=O [Lestaurtinib] + C[C@@H](Oc1cc(-c2cnn(C3CCNCC3)c2)cnc1N)c1c(Cl)ccc(F)c1Cl [Crizotinib] (partner 1 µM)
How it was run: as §1

[3] = compound: C[C@]12O[C@H](C[C@]1(O)CO)n1c3ccccc3c3c4c(c5c6ccccc6n2c5c31)CNC4=O [Lestaurtinib] + C[C@]1(O)C[C@@H](c2nc(-c3ccc4ccc(-c5ccccc5)nc4c3)c3c(N)nccn32)C1 [Linsitinib] (partner 1 µM)
How it was run: as §1

[4] = compound: C1/C(=C\C2=CC=CS2)/C(=O)/C(=C/C3=CC=CS3)/C1 + Nc1ncn([C@H]2C[C@H](O)[C@@H](CO)O2)c(=O)n1 [Decitabine] (partner 2 µM)
How it was run: as §1

| Cell Line | relative viability ([1]; first compound 0.04 µM) | relative viability ([1]; first compound 0.1265 µM) | relative viability ([1]; first compound 0.4 µM) | relative viability ([1]; first compound 1.265 µM) | relative viability ([1]; first compound 4 µM) | relative viability ([2]; first compound 0.005 µM) | relative viability ([2]; first compound 0.01581 µM) | relative viability ([2]; first compound 0.05 µM) | relative viability ([2]; first compound 0.1581 µM) | relative viability ([2]; first compound 0.5 µM) | relative viability ([3]; first compound 0.005 µM) | relative viability ([3]; first compound 0.01581 µM) | relative viability ([3]; first compound 0.05 µM) | relative viability ([3]; first compound 0.1581 µM) | relative viability ([3]; first compound 0.5 µM) | relative viability ([4]; first compound 0.2 µM) | relative viability ([4]; first compound 0.6325 µM) | relative viability ([4]; first compound 2 µM) | relative viability ([4]; first compound 6.325 µM) | relative viability ([4]; first compound 20 µM) |
| --- | --- | --- | --- | --- | --- | --- | --- | --- | --- | --- | --- | --- | --- | --- | --- | --- | --- | --- | --- | --- |
| LCLC-103H | 0.747 | 0.788 | 0.782 | 0.868 | 0.779 | 1.11 | 1.02 | 0.867 | 0.761 | 0.593 | 1.07 | 1.12 | 0.697 | 0.705 | 0.6 | 0.803 | 0.747 | 0.77 | 0.554 | 0.742 |
| LK-2 | 0.68 | 0.371 | 0.516 | 0.741 | 0.335 | 0.241 | 0.264 | 0.267 | 0.188 | 0.188 | 0.456 | 0.847 | 0.403 | 0.394 | 0.176 | 0.341 | 0.31 | 0.358 | 0.33 | 0.347 |
| LOU-NH91 | 0.885 | 0.846 | 0.922 | 0.94 | 0.773 | 0.755 | 0.718 | 0.627 | 0.547 | 0.469 | 0.912 | 0.887 | 0.773 | 0.603 | 0.45 | 0.85 | 0.777 | 0.781 | 0.797 | 0.825 |
| LU99A | 0.257 | 0.277 | 0.293 | 0.223 | 0.168 | 0.606 | 0.49 | 0.275 | 0.314 | 0.162 | 0.46 | 0.443 | 0.3 | 0.284 | 0.21 | 0.878 | 0.969 | 0.982 | 0.629 | 0.866 |
| LXF-289 | 1.09 | 0.94 | 1.12 | 1.06 | 0.735 | 0.791 | 0.815 | 0.568 | 0.798 | 0.183 | 0.967 | 0.964 | 0.741 | 0.802 | 0.197 | 0.371 | 0.386 | 0.355 | 0.373 | 0.344 |
| NCI-H23 | 0.317 | 0.234 | 0.285 | 0.353 | 0.192 | 0.466 | 0.495 | 0.401 | 0.546 | 0.233 | 0.509 | 0.604 | 0.387 | 0.463 | 0.233 | 0.32 | 0.293 | 0.314 | 0.34 | 0.285 |
| NCI-H322M | 0.78 | 0.785 | 0.77 | 0.73 | 0.41 | 0.931 | 0.919 | 0.495 | 0.482 | 0.41 | 0.853 | 0.649 | 0.375 | 0.425 | 0.392 | 0.654 | 0.63 | 0.743 | 0.654 | 0.678 |
| NCI-H358 | 0.619 | 0.48 | 0.646 | 0.546 | 0.32 | 0.61 | 0.297 | 0.402 | 0.31 | 0.0912 | 0.622 | 0.494 | 0.311 | 0.301 | 0.187 | 0.217 | 0.207 | 0.212 | 0.203 | 0.192 |
